From patent EP3494999A1, “PSMA LIGANDS FOR IMAGING AND ENDORADIOTHERAPY” (Technische Universität München, priority 2017, dated 2019)

Key:
[1] = biological target: T1, human serum albumin (Homo sapiens, UniProt P02768); details: literature value of human serum albumin binding (Valko et al. or Yamazaki et al.); cited from earlier work
[2] = biological target: T1, human serum albumin; assay: Literature HSA binding of the reference substances used to calibrate the HSA column; details: logarithmic K of human serum albumin binding, from the literature HSA%
Experimental: (§1) The mobile phase was freshly prepared for each experiment and only used for one day. The column was kept at room temperature and each run was stopped after detection of the signal to reduce the acquisition time. All substances were dissolved in a 0.5mg/ml concentration in 50% 2-Propanol and 50% 50mM pH 6.9 ammonium acetate buffer. […] All nine reference substances were injected consecutively to establish a non-linear regression with OriginPro 2016G. […] Table 1: Reference substances used for the calibration of the HSA-column.

[3] = type: physicochemical
Experimental: To a volume of 500 µL n-octanol, 0.5 to 1.0 MBq of the radiolabeled PSMA inhibitor in 500 µL PBS (pH = 7.4) was added and rigorously vortexted for 3 min (n = 6). For quantitative phase separation, the mixture was centrifuged at 6,000 g for 5 min (Biofuge 15, Heraus Sepatech, Osterode, Germany).

[4] = biological target: PSMA (Homo sapiens, UniProt Q04609); assay: Internalization of radiolabeled PSMA inhibitors into cells (PMPA blockade); type: cell-based; parameters: endogenous in cells; LNCaP is named only for the xenografts; details: 177Lu-labeled inhibitors, 37°C; reference basis of the % not stated
Experimental: The ^177Lu-labeled compounds, for in vitro studies, were prepared as previously described (Sosabowski, J.K. and S.J. Mather, Conjugation of DOTA-like chelating agents to peptides and radiolabeling with trivalent metallic isotopes. Nat. Protocols, 2006. 1(2): p. 972-976) with minor modifications and used without further purification. In short, to a reaction volume of 10 µL 1.0 M NH4OAc buffer pH = 5.9 was added 0.75 to 1.0 nmol tracer (7.5 to 10 µL), 10 to 40 MBq ^177LuCl3 (Specific Activity (AS) > 3000 GBq/mg, 740 MBq/mL, 0.04 M HCl, ITG, Garching, Germany) and finally filled up to 100 µL with trace-pure Water (Merck, Darmstadt, Germany). The reaction mixture was heated for 30 min at 95°C and the radiochemical purity was determined using Radio-TLC.
[…] Each well was treated with either 25 µL of either DMEM-F12 (5% BSA) or a 100 µM PMPA solution for blockade. Next, 25 µL of the respective ^68Ga-and ^177Lu-labeled PSMA inhibitors (2.0 nM / 5.0 nM) was added and the cells incubated at 37°C for 5, 15, 30 and 60 min, respectively. The experiment was terminated by placing the 24-well plate on ice for 3 min and consecutive removal of the medium. Each well was rinsed with 250 µL HBSS and the fractions from these first two steps combined, representing the amount of free radioligand. Removal of surface bound activity was accomplished by incubation of the cells with 250 µL of ice-cold PMPA (10 µM in PBS) solution for 5 min and rinsed again with another 250 µL of ice-cold PBS. The internalized activity was determined by incubation of the cells in 250 µL 1.0 M NaOH and the combination with the fraction of a subsequent wash step with 250 µL 1.0 M NaOH. Each experiment (control and blockade) was performed in triplicate for each time point. Free, surface bound and internalized activity was quantified in a γ-counter.

[5] = biological target: T2, human serum albumin (HSA) (Homo sapiens, UniProt P02768); type: in vitro ADME
T2 construct: purchased Daicel Chemical Industries, purchased from Chiral Technologies Europe (France)
Excerpt: The Fmoc-(9-fluorenylmethoxycarbonyl-) and all other protected amino acid analogs were purchased from Bachem (Bubendorf, Switzerland) or Iris Biotech (Marktredwitz, Germany). […] The tritylchloride polystyrene (TCP) resin was obtained from PepChem (Tubingen, Germany). Chematech (Dijon, France) delivered the chelator DOTAGA-anhydride. All necessary solvents and other organic reagents were purchased from either Alfa Aesar (Karlsruhe, Germany), Sigma-Aldrich (Munich, Germany) or VWR (Darmstadt, Germany). Solid phase synthesis of the peptides was carried out by manual operation using an Intelli-Mixer syringe shaker (Neolab, Heidelberg, Germany). […] Analysis of the peptides was performed by applying different gradients of 0.1% (v/v) trifluoroacetic acid (TFA) in H2O (solvent A) and 0.1% TFA (v/v) in acetonitrile (MeCN) (solvent B) with a constant flow of 1 mL/min (specific gradients are cited in the text). […] Human serum albumin (HSA) binding was determined using a Chiralpak HSA 50 x 3 mm 5µm Analytical Column connected to a Chiralpak HSA 10 x 3 mm 5µm Guard Cartridge (Daicel Chemical Industries) purchased from Chiral Technologies Europe (France). Nonlinear regression for the HSA binding was performed using OriginPro 2016G. Both retention times tR as well as the capacity factors K' are cited in the text. […] Radioactivity was detected through connection of the outlet of the UV-photometer to a Nal(TI) well-type scintillation counter from EG&G Ortec (Munich, Germany). […] ESI-mass spectra were acquired on an expression^L CMS mass spectrometer (Advion Ltd., Harlow, UK) and on a Varian 500-MS IT mass spectrometer (Agilent Technologies, Santa Clara, USA). For the HSA binding experiment a Chiralpak HSA 50 x 3 mm 5µm Analytical Column, (Daicel Chemical Industries, LTD) connected to a Chiralpak HSA 10 x 3 mm 5µm Guard Cartridge (Daicel Chemical Industries; Chiral Technologies Europe) was used.
as §1

T1 sequence (P02768 25-609): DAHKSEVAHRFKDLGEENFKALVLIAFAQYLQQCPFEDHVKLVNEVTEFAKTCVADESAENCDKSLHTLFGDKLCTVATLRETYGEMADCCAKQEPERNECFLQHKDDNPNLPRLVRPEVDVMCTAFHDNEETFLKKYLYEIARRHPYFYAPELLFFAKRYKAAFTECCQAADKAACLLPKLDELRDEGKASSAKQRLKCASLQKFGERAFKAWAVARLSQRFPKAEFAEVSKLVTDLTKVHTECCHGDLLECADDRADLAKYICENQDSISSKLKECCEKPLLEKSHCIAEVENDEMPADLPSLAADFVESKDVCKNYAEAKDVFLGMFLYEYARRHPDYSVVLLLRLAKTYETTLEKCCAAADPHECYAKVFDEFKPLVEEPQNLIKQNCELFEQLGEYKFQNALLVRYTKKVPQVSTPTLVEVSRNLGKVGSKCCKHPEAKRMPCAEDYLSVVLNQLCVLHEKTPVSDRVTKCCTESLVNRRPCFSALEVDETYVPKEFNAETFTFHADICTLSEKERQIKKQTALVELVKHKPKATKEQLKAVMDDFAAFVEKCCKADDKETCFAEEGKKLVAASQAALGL
T2 sequence (P02768 25-609): as above
Sequence of PSMA (Q04609 whole entry): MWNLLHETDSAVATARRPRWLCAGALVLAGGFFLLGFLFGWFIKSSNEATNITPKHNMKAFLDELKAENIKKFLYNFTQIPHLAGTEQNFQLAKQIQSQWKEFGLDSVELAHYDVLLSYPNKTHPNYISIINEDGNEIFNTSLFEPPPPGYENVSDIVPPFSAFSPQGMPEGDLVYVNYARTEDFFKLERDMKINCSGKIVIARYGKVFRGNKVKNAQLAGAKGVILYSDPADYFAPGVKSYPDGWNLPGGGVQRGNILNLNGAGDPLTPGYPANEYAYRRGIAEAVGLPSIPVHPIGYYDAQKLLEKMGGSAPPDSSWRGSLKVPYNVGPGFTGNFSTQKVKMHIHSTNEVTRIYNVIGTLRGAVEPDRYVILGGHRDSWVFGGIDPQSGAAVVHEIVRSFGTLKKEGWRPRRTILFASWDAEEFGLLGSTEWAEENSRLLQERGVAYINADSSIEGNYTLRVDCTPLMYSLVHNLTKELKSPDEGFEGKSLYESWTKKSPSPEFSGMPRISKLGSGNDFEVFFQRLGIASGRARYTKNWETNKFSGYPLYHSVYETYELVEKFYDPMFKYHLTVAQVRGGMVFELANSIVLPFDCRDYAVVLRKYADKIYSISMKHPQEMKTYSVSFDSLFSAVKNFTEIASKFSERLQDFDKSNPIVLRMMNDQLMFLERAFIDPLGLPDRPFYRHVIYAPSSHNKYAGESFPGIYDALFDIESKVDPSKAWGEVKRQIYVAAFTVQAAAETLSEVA

Internalization [%] [4] | SMILES | Lit. HSA% [1] | Log K HSA [2] | logP [3] | HSA [%] [5]
 | O=C(O)c1ccccc1 [Benzoic Acid] | 34.27% | -0.29 |  | 
 | Nc1ccccc1 [Aniline] | 14.06% | -0.79 |  | 
75.5 ± 1.6% | O=C(O)CC[C@H](NC(=O)N[C@@H](CCCCNC(=O)CCCCCCC(=O)NCCCC[C@@H](NC(=O)[C@@H](Cc1ccccc1)NC(=O)[C@@H](Cc1ccc(O)c(I)c1)NC(=O)CCC(C(=O)O)N1CCN(CC(=O)O)CCN(CC(=O)O)CCN(CC(=O)O)CC1)C(=O)O)C(=O)O)C(=O)O (stereo partly drawn) [[^nat/177Lu]PSMA-1, DOTAGA-(l-y)-f-k-KuE, metal not drawn, reference compound] |  |  | -4.12 ± 0.1 | 78.6%
 | Oc1ccccc1 [Phenol] | 20.69% | -0.59 |  | 
 | CCCN(CCC)S(=O)(=O)c1ccc(C(=O)O)cc1 [Probenecid] | 95.00% |  |  | 
 | COc1ccc(Cl)cc1C(=O)NCCc1ccc(S(=O)(=O)NC(=O)NC2CCCCC2)cc1 [Glibenclamide] | 99.00% | 1.69 |  | 
